Patent US4226877A, “Pyrazoles active in the central nervous system” (Abbott Laboratories, priority 1979, dated 1980)
Like-named read-outs stand apart in the source and are kept apart here.

Tests used:
[1] = system: methamphetamine-induced hyperactivity; assay: Rat methamphetamine antagonism test; assay type: in vivo, Male, Long-Evans, black hooded rats; details: for ED50: Rattus norvegicus; for % Change From Placebo Control: methamphetamine 1 mg/kg i.p. one hour later
Experimental: The second test for identifying potential antipsychotic properties was the rat methamphetamine antagonism test.
[…] Three rats were tested at each dose level. Placebo controls received a volume dose of the 0.5% carboxymethylcellulose vehicle. One hour after drug administration, the animals received methamphetamine at an intraperitoneal dose of 1 mg/kg and were placed in individual test chambers equipped with photocells (Lehigh Valley, Model 1497). Antagonism of methamphetamine-induced hyperactivity was recorded as digital counts received from the photocells at one and two hour intervals.
The drug data were compared to placebo control values to identify statistically significant differences using a one-way analysis of variance computer program. ED50's were calculated by the method of Litchfield and Wilcoxin (J. Pharmacol. Exper. Therap.: 96:99, 1949).

[2] = system: brain level of homovanillic acid (HVA); assay: Effect of drug compounds on brain level of homovanillic acid (HVA) in rats; assay type: in vivo, male Long Evans rats; details: brains (minus cerebella) removed two or three hours later, control = 1
Experimental: In testing for the effectiveness of the present drug compounds on the brain level of homovanillic acid (HVA), the drugs were administered intraperitoneally to male Long Evans rats (Simonsen) usually as aqueous solutions but in certain cases as suspensions in 0.5% methocel in 0.9% saline. The standard testing dose was […] body weight. The test and control groups consisted of 3-5 and 5 animals, respectively. The analyses were performed on brains (minus cerebella) removed two or three hours later. In the analyses, standard extraction and fluorimetric methods were used.
Antipsychotic agents increase the synthesis and release of dopamine which is converted to HVA. The HVA level is therefore a measure of dopamine release.

[3] = oral, calculated by the method of Litchfield and Wilcoxin, read-out: ED50
[4] = Dose 0.15 (moles/kg body weight), intraperitoneal

| Structure (SMILES) | ED50 ([1]; po) | % Change From Placebo Control ([1]; oral dose 5 mg/kg) | % Change From Placebo Control ([1]; oral dose 10 mg/kg) | % Change From Placebo Control ([1]; oral dose 20 mg/kg) | HVA Level; Compound : Control Ratio ([2]; Dose 0.03, intraperitoneal) | ED50 [1, 3] | % Change From Placebo Control ([1]; oral dose 80 mg/kg) | HVA Level; Compound : Control Ratio [2, 4] |
| --- | --- | --- | --- | --- | --- | --- | --- | --- |
| CN(C)CCCN1c2ccccc2Sc2ccc(Cl)cc21 [Chlorpromazine, reference compound] | 15 mg/kg | +10% | -40% | -74% | 3.9 | – | – | – |
| CCN1CCCC1CNC(=O)c1c(C)nn(C)c1OC (centres unmarked) [I, N-[(1-ethyl-2-pyrrolidinyl)methyl]-5-methoxy-1,3-dimethylpyrazole-4-carboxamide] | – | -9% | – | -35% | – | 44 mg/kg | -60% | 4.0 |
| CCN1CCCC1CNC(=O)c1c(C)nn(C(C)C)c1OC (centres unmarked) [II, N-[(1-Ethyl-2-pyrrolidinyl)methyl]-1-isopropyl-5-methoxy-3-methylpyrazole-4-carboxamide] | – | -16% | – | -13% | – | > 80 mg/kg | -16% | 1.8 |
| CCN1CCCC1CNC(=O)c1c(C(C)C)nn(C)c1OC (centres unmarked) [III, N[(1-Ethyl-2-pyrrolidinyl)methyl]-3-isopropyl-5-methoxy-1-methylpyrazole 4-carboxamide] | – | -31% | – | -33% | – | > 80 mg/kg | -12% | 1.0 |
| CCN1CCCC1CNC(=O)c1c(C)nn(C(C)C)c1O (centres unmarked) [IV] | – | +35% | – | +28% | – | > 80 mg/kg | -18% | 2.2 |
| CCN1CCCC1CNC(=O)c1cc(S(N)(=O)=O)ccc1OC (centres unmarked) [Sulpiride, reference compound] | – | +27% | – | +21% | – | > 80 mg/kg | 0% | 3.0 |
| CCN1CCCC1CNC(=O)c1c(C)nn(-c2ccccc2)c1OC (centres unmarked) [V, N-[(1-Ethyl-2-pyrrolidinyl)methyl]-5-methoxy-3-methyl-1-phenyl pyrazole-4-carboxamide] | – | -23% | – | -32% | – | 23.5 mg/kg | -81% | 3.3 |
